Measured values published in patent US20210338654A1 (priority 2019, published 2021).
Several values for one entry are separate records, joined by “and”; a condition that tells them apart may be missing. Identical values can stand only once.

Tests used:
[1] = system: breakthrough migraine in patients treated with botulinum toxin (Botox); settings: human, in vivo
patients with migraine = settings: in vivo
[2] = system: breakthrough migraine in patient treated with fremanezumab; settings: human, in vivo
[3] = system: migraine attack of moderate or severe intensity in adults; format: in vivo, human
[4] = system: breakthrough migraine in patients treated with erenumab-aooe; settings: human, in vivo

Q: With `N[C@@H]1c2cccnc2[C@H](OC(=O)N2CCC(n3c(=O)[nH]c4ncccc43)CC2)CC[C@H]1c1cccc(F)c1F` [Rimegepant, [(5S,6S,9R)-5-amino-6-(2,3-difluorophenyl)-6,7,8,9-tetrahydro-5H-cyclohepta[b]pyridin-9-yl] 4-(2-oxo-3H-imidazo[4,5-b]pyridin-1-yl)piperidine-1-carboxylate] as the molecule, how does the “adverse effects from treatment” value [1] read?
A: did not report any adverse effects

Q: What about the “need for rescue medication” value [1] of the same molecule?
A: did not require any rescue medications or additional doses of rimegepant

Q: What about the “number of headache days (parent report)” value [1] of the same molecule?
A: noticeable reduction in the number of headache days

Q: And the “relief from breakthrough migraine headache” value [1]?
A: obtained relief from the migraine headache without the need to take other medications

Q: And the “resolution of Botox induced headache” value [1]?
A: completely resolved within an hour

Q: What about the “time to full resolution of headache” value [1] of the same molecule?
A: ≤ 1 h

Q: What about the “time to pain relief” value [1] of the same molecule?
A: within a half an hour

Q: And the “incidence of serum ALT or AST >3×ULN” value (patients with migraine; human)?
A: 1.0%

Q: What about the “Hy's Law cases” value (patients with migraine) of the same molecule?
A: no Hy's Law cases identified

Q: And the “liver cases assessed as probably related to study drug” value (patients with migraine)?
A: no liver cases assessed as probably related to study drug

Q: And the liver safety signal (patients with migraine)?
A: no liver safety signal detected to date

Q: And the “mean reduction in headaches/month” value (patients with migraine)?
A: 4 days

Q: What about the “patients with at least 30% reduction in monthly number of headache days” value (patients with migraine) of the same molecule?
A: Approximately 40%

Q: And the “migraine breakthroughs successfully treated” value [2]?
A: three migraine breakthroughs that were successfully treated

Q: And the “N. Censored (no pain score of none by 495 minutes postdose, censored at 496 minutes)” value ([3]; N = 537)?
A: 139

Q: And the “Freedom from most bothersome symptom at two hours postdose, Common Risk” value ([3]; in vivo)?
A: 41.2%

Q: And the “Freedom from most bothersome symptom at two hours postdose, Free from MBS n/N” value ([3]; in vivo)?
A: 31/89 and 171/448 and 202/537

Q: And the “Freedom from most bothersome symptom at two hours postdose, Stratum Risk” value ([3]; in vivo)?
A: 40.3% and 41.4%

Q: And the “Pain freedom at two hours postdose, Common Risk” value ([3]; in vivo)?
A: 20.2%

Q: What about the “Pain freedom at two hours postdose, No Pain n/N” value ([3]; in vivo) of the same molecule?
A: 14/89 and 91/448 and 105/537

Q: And the “Pain freedom at two hours postdose, Risk Difference Rimegepant vs Placebo” value ([3]; in vivo)?
A: 7.82 and 7.36 and 7.91

Q: What about the “Pain freedom at two hours postdose, Stratum Risk” value ([3]; in vivo) of the same molecule?
A: 16.7% and 20.9%

Q: What about the “Preference of Medication response” value [4] of the same molecule?
A: Much better, I prefer this medication.

Q: And the “Satisfaction with Medication (SM) response” value [4]?
A: Very satisfied.

Q: And the “acute treatment of breakthrough migraine, outcome” value [4]?
A: effective

Q: What about the adverse events [4] of the same molecule?
A: no adverse events

Q: What about the “adverse events related to treatment” value [4] of the same molecule?
A: no adverse events related to treatment

Q: And the “adverse events while receiving rimegepant alone (streptococcal pharyngitis, considered unrelated)” value [4]?
A: 1

Q: What about the “rating versus previous treatments” value [4] of the same molecule?
A: much better

Q: And the “relief from breakthrough migraine headache” value [4]?
A: obtained relief from the migraine headache without the need to take other medications

Q: And the “satisfaction with rimegepant at end-of-study visit” value [4]?
A: very satisfied

Q: `CN(C)CCc1c[nH]c2ccc(C[C@H]3COC(=O)N3)cc12` [Zomig®, reference compound] was tested. Which “effect on migraines (patient history)” value [1] did it give?
A: would decrease in intensity but they would not attain freedom from pain within 24 hrs

B1: erenumab (antibody, chains of the INN, looked up, V domains shown)
VH: QVQLVESGGGVVQPGRSLRLSCAASGFTFSSFGMHWVRQAPGKGLEWVAVISFDGSIKYSVDSVKGRFTISRDNSKNTLFLQMNSLRAEDTAVYYCARDRLNYYDSSGYYHYKYYGMAVWGQGTTVTVSS
VL: QSVLTQPPSVSAAPGQKVTISCSGSSSNIGNNYVSWYQQLPGTAPKLLIYDNNKRPSGIPDRFSGSKSGTSTTLGITGLQTGDEADYYCGTWDSRLSAVVFGGGTKLTVL
Q: For B1, which “decline in monthly migraine days (MMDs)” value [4] is on record?
A: 46%

Q: And the “monthly migraine days of any pain intensity after starting erenumab” value [4]?
A: 7 MMDs
